Target: E2F4 (Mus musculus, UniProt Q8R0K9)
Experiment: EMSA of E2F4 DNA binding with compound added to cell extract
Format: biochemical
Conditions: NIH-3T3 protein extract; 20 µM screen; STAT3 EMSA as negative control

E2F4, sequence (Q8R0K9 2-410): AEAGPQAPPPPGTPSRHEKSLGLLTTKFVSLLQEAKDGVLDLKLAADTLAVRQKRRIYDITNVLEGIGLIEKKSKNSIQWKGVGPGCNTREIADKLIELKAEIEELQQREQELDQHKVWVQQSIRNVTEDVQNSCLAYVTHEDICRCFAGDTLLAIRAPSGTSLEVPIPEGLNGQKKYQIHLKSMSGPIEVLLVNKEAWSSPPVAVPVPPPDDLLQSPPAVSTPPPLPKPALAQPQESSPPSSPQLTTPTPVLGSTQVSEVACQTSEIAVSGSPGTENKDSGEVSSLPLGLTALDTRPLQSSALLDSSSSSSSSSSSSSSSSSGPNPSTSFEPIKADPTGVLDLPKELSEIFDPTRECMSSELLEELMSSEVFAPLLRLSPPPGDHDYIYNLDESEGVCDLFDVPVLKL

## CCOc1ccc(C(Nc2ccccn2)c2ccc3ccc(C)nc3c2O)cc1C (stereo not shown) [HLM006474]
  inhibition at 20 μM: Incubation of these compounds with NIH-3T3 protein extracts identified ten compounds with potential E2F4-inhibitory activity
